# Patent US9249035B2, “Method and system for treating water in order to reduce its endocrine disrupting effect by means of a living organism” (Veolia Water Solutions & Technologies Support, priority 2012, dated 2016)
# Tested on: larvae of genetically modified amphibians
# Test: Calibration test: fluorescence of genetically modified amphibian larvae exposed to growing estrogen concentrations
# Type: in vivo
# Details: FIG. 3
# Method: A test of calibration of a plant to implement the method according to the invention was carried in order to determine an acceptable threshold value of endocrine disruptors in the treated water. This calibration test also makes it possible to distinguish the natural fluorescence of water and the basal fluorescence of genetically modified aquatic organisms, related to the normal functioning of the genes, from the fluorescence emitted by the same organisms when they detect the presence of an endocrine disrupting and/or toxic and/or genotoxic pollutant. The fluorescence of water and the basal fluorescence of the genetically modified aquatic organisms can be likened to background noise which must be evaluated in order to deduct it from the signal measured in the presence of a pollutant.
# The disruptor chosen for example is estrogen which is found in urban wastewater. […] These concentrations have been related to measured intensities of fluorescence.
# From a reading of this graph, it can observed that amphibian larvae are sensitive to very low doses of estrogen such as ethinyl-oestradiol (EE2) (2.5×10^−10 mol/L) and emit a detectable and quantifiable intensity of fluorescence. […] This concentration is related with the measured intensity of fluorescence. […]
substance,measurement,value
ethinyl-oestradiol,estrogen concentration leading to a physiological reversal,≥ 2×10^−9 mol/L
same,very low dose at which amphibian larvae emit a detectable and quantifiable intensity of fluorescence,2.5e-10 mol/L
